Values after ≈ are worked out from the molar mass of the structure shown. Where a SMILES comes first, the peptide text is derived from it.

Consider six molecules from paper PMC3634028, “Novel α-MSH Peptide Analogues with Broad Spectrum Antimicrobial Activity” (PLoS ONE, 2013).

In one assay the test system is C. albicans. In kind it is cell-based, Candida albicans. The conditions noted are these: 48 h. On the procedure: (§1) Two Candida albicans isolates were purchased from the ATCC (No. 24433 and 76615). The other yeast isolates were obtained from the collection of Fondazione Ca' Granda- Ospedale Maggiore Policlinico, Milano. The collection included C. albicans (7 isolates), C. glabrata (3 isolates), and C. krusei (3 isolates). Antifungal susceptibility testing was performed using the broth microdilution method according to the NCCLS M27-A guidelines (National Committee for Clinical Laboratory Standards. 1997, Reference method for broth dilution antifungal susceptibility testing of yeasts and approved standard NCCLS document M27-A. National Committee for Clinical Laboratory Standards, Wayne, Pa.). […] After 48 h of incubation, the plates were inspected for purity. A colony was taken from the agar plate and transferred into 5 mL Sabouraud-dextrose broth and incubated for 48 h at 35°C. Cells were centrifuged at 1,000× g for 10 min and the pellet was washed twice with distilled water. Cells were counted and suspended in RPMI 1640 medium buffered to pH 7.0 with 0.165 mol l^−1 morpholinepropanesulphonic acid (MOPS) buffer (Sigma) to obtain the two times test inoculum (1×10^3 to 5×10^3 CFU/mL). […] The MIC90, i.e. the minimum inhibitory concentrations endpoint were determined as 90% reduction in turbidity measured using a spectrophotometer (Titertek multiscan at 690 nm wave length).

The next assay concerns C. glabrata. In kind it is cell-based, Candida glabrata. Conditions: 48 h. On the procedure: as §1
A further assay concerns C. krusei. It counts as cell-based, Candida krusei. The conditions noted are these: 48 h. The procedure: as §1
The test system of assay [1] is Candida strains (C. albicans, C. glabrata, C. krusei). The assay can be described thus: Anti-Candida assay, overall result in words. Conditions: standard culture conditions, broth culture medium. It counts as cell-based, Candida spp. The procedure:
as §1

On to `CC(C)[C@H](NC(=O)[C@H](Cc1ccccc1)NC(=O)[C@H](CCCCN)NC(=O)CCNC(=O)[C@H](Cc1c[nH]c2ccccc12)NC(=O)[C@H](CCCNC(=N)N)NC(=O)[C@@H](Cc1ccc2ccccc2c1)NC(=O)[C@@H](N)Cc1c[nH]cn1)C(N)=O` [Peptide 11, H-His-D(2′)Nal-Arg-Trp-βAla-Lys-Phe-Val-NH2] (HELM PEPTIDE1{H.[O=C([C@@H](Cc1ccc2ccccc2c1)N[*:1])[*:2]].R.W.[bAla].K.F.V.[am]}$$$$V2.0), for which the “MIC 90” value against C. albicans, against C. glabrata and against C. krusei was over 100 µM throughout. The “antimicrobial / anti-Candida activity (in words)” value in assay [1] was “no anti-Candida activity”.

As to `CC(C)[C@H](NC(=O)[C@H](Cc1ccccc1)NC(=O)[C@H](CCCCN)NC(=O)CNC(=O)CNC(=O)[C@H](Cc1c[nH]c2ccccc12)NC(=O)[C@H](CCCNC(=N)N)NC(=O)[C@@H](Cc1ccc2ccccc2c1)NC(=O)[C@@H](N)Cc1c[nH]cn1)C(N)=O` [Peptide 13, H-His-D(2′)Nal-Arg-Trp-Gly-Gly-Lys-Phe-Val-NH2] (HELM PEPTIDE1{H.[O=C([C@@H](Cc1ccc2ccccc2c1)N[*:1])[*:2]].R.W.G.G.K.F.V.[am]}$$$$V2.0), the “MIC 90” value in the assay with C. albicans, in the assay on C. glabrata and in the assay with C. krusei was over 100 µM in each case. Besides, the “antimicrobial / anti-Candida activity (in words)” value in assay [1] is given as “no activity”.

In the case of `CC(C)[C@H](NC(=O)[C@H](Cc1ccccc1)NC(=O)[C@H](CCCCN)NC(=O)C(C)(C)NC(=O)[C@H](Cc1c[nH]c2ccccc12)NC(=O)[C@H](CCCNC(=N)N)NC(=O)[C@@H](Cc1ccc2ccccc2c1)NC(=O)[C@@H](N)Cc1c[nH]cn1)C(N)=O` [Peptide 1, H-His-D(2′)Nal-Arg-Trp-Aib-Lys-Phe-Val-NH2] (HELM PEPTIDE1{H.[O=C([C@@H](Cc1ccc2ccccc2c1)N[*:1])[*:2]].R.W.[Aib].K.F.V.[am]}$$$$V2.0), the “MIC 90” value is over 100 µM in the assay on C. glabrata and 97 µM (≈ 112 µg/mL) against C. krusei. The “antimicrobial / anti-Candida activity (in words)” value in assay [1] is on record as “did not show antimicrobial activity”.

On to `CC(C)[C@H](NC(=O)[C@H](Cc1ccccc1)NC(=O)[C@H](CCCCN)NC(=O)C1(NC(=O)[C@H](Cc2c[nH]c3ccccc23)NC(=O)[C@H](CCCNC(=N)N)NC(=O)[C@@H](Cc2ccc3ccccc3c2)NC(=O)[C@@H](N)Cc2c[nH]cn2)CCC1)C(N)=O` [Peptide 5, H-His-D(2′)Nal-Arg-Trp-Ac4c -Lys-Phe-Val-NH2] (HELM PEPTIDE1{H.[O=C([C@@H](Cc1ccc2ccccc2c1)N[*:1])[*:2]].R.W.[O=C(C1(N[*:1])CCC1)[*:2]].K.F.V.[am]}$$$$V2.0), for which the “MIC 90” value in the assay on C. glabrata is recorded as over 100 µM; in the assay on C. krusei, 99 µM (≈ 115 µg/mL). In addition, the “antimicrobial / anti-Candida activity (in words)” value in assay [1] is “weak activity”.

Consider `CC(C)[C@H](NC(=O)[C@H](Cc1ccccc1)NC(=O)[C@H](CCCCN)NC(=O)C1(NC(=O)[C@H](Cc2c[nH]c3ccccc23)NC(=O)[C@H](CCCNC(=N)N)NC(=O)[C@@H](Cc2ccc3ccccc3c2)NC(=O)[C@@H](N)Cc2c[nH]cn2)CCCCC1)C(N)=O` [Peptide 7, H-His-D(2′)Nal-Arg-Trp-Ac6c -Lys-Phe-Val-NH2] (HELM PEPTIDE1{H.[O=C([C@@H](Cc1ccc2ccccc2c1)N[*:1])[*:2]].R.W.[O=C(C1(N[*:1])CCCCC1)[*:2]].K.F.V.[am]}$$$$V2.0), for which the “MIC 90” value with C. albicans is 51 µM (≈ 60.9 µg/mL); in the assay with C. glabrata it was over 100 µM. Besides, the “antimicrobial / anti-Candida activity (in words)” value in assay [1] is given as “substantial activity”.

On to `CC(C)[C@H](NC(=O)[C@H](Cc1ccccc1)NC(=O)[C@H](CCCCN)NC(=O)C1(NC(=O)[C@H](Cc2c[nH]c3ccccc23)NC(=O)[C@H](CCCNC(=N)N)NC(=O)[C@@H](Cc2ccc3ccccc3c2)NC(=O)[C@@H](N)Cc2c[nH]cn2)CCCC1)C(N)=O` [Peptide 6, H-His-D(2′)Nal-Arg-Trp-Ac5c-Lys-Phe-Val-NH2] (HELM PEPTIDE1{H.[O=C([C@@H](Cc1ccc2ccccc2c1)N[*:1])[*:2]].R.W.[O=C(C1(N[*:1])CCCC1)[*:2]].K.F.V.[am]}$$$$V2.0), for which the “MIC 90” value with C. glabrata and in the assay with C. krusei was over 100 µM in each case. Besides, the “antimicrobial / anti-Candida activity (in words)” value in assay [1] was “substantial activity”.
